Source: US20200032271A1, “COMBINATION THERAPY WITH LIPOSOMAL ANTISENSE OLIGONUCLEOTIDES” (Bio-Path Holdings, Inc., priority 2016, published 2020)
[PEt] = P-ethoxy (ethyl phosphotriester) internucleoside linkage

Experiment: Adverse events in study 2003-0578 (NCI CTCAE grading)
Conditions: all treatment groups

Substance: BP1001: liposome-incorporated P-ethoxy antisense oligodeoxynucleotide (5′-ATATTTGGCGATGGCTTC-3′, SEQ ID NO: 1) specific to grb2 mRNA, in neutral DOPC liposomes (DNA, all [PEt], methylation of C not given here; incorporated in neutral DOPC liposomes)
- AML progression, number of patients (AML at enrollment (n = 30)): 19
- Abdominal Pain ≥Grade 3, number of patients (AML at enrollment (n = 30)): 1
- Acidosis ≥Grade 3, number of patients (AML at enrollment (n = 30)): 3
- Acute kidney injury ≥Grade 3, number of patients (AML at enrollment (n = 30)): 3
- Asthenia ≥Grade 3, number of patients (AML at enrollment (n = 30)): 1
- Back Pain ≥Grade 3, number of patients (AML at enrollment (n = 30)): 1
- Blood and lymphatic system disorders ≥Grade 3, number of patients (AML at enrollment (n = 30)): 10
- Cardiac disorders ≥Grade 3, number of patients (AML at enrollment (n = 30)): 1
- Cataract ≥Grade 3, number of patients (AML at enrollment (n = 30)): 1
- Dyspnea ≥Grade 3, number of patients (AML at enrollment (n = 30)): 3
- Extremity Lower Edema ≥Grade 3, number of patients (AML at enrollment (n = 30)): 1
- Eye disorders ≥Grade 3, number of patients (AML at enrollment (n = 30)): 1
- Febrile neutropenia ≥Grade 3, number of patients (AML at enrollment (n = 30)): 3
- Gastrointestinal disorders ≥Grade 3, number of patients (AML at enrollment (n = 30)): 1
- General disorders and administration site conditions ≥Grade 3, number of patients (AML at enrollment (n = 30)): 4
- Hallucinations ≥Grade 3, number of patients (AML at enrollment (n = 30)): 1
- Heart failure ≥Grade 3, number of patients (AML at enrollment (n = 30)): 1
- Hepatic failure ≥Grade 3, number of patients (AML at enrollment (n = 30)): 2
- Hepatobiliary disorders ≥Grade 3, number of patients (AML at enrollment (n = 30)): 2
- Hypocalcemia ≥Grade 3, number of patients (AML at enrollment (n = 30)): 1
- Hypoglycemia ≥Grade 3, number of patients (AML at enrollment (n = 30)): 1
- Hypokalemia ≥Grade 3, number of patients (AML at enrollment (n = 30)): 3
- Hyponatremia ≥Grade 3, number of patients (AML at enrollment (n = 30)): 1
- Hypotension ≥Grade 3, number of patients (AML at enrollment (n = 30)): 3
- Hypovolemia ≥Grade 3, number of patients (AML at enrollment (n = 30)): 1
- Hypoxia ≥Grade 3, number of patients (AML at enrollment (n = 30)): 4
- Investigations ≥Grade 3, number of patients (AML at enrollment (n = 30)): 2
- Leukocytosis ≥Grade 3, number of patients (AML at enrollment (n = 30)): 6
- Metabolism and nutritional disorders ≥Grade 3, number of patients (AML at enrollment (n = 30)): 8
- Multi-organ failure ≥Grade 3, number of patients (AML at enrollment (n = 30)): 2
- Musculoskeletal and connective tissue disorders ≥Grade 3, number of patients (AML at enrollment (n = 30)): 1
- Neoplasms benign, malignant, and unspecified (incl. cysts and polyps) ≥Grade 3, number of patients (AML at enrollment (n = 30)): 2
- Patients with AEs ≥Grade 3, number of patients (AML at enrollment (n = 30)): 23
- Penile Pain ≥Grade 3, number of patients (AML at enrollment (n = 30)): 1
- Platelet count decreased ≥Grade 3, number of patients (AML at enrollment (n = 30)): 2
- Pleural Effusions ≥Grade 3, number of patients (AML at enrollment (n = 30)): 1
- Pneumonia ≥Grade 3, number of patients (AML at enrollment (n = 30)): 4
- Psychiatric disorders ≥Grade 3, number of patients (AML at enrollment (n = 30)): 1
- Renal and urinary disorders ≥Grade 3, number of patients (AML at enrollment (n = 30)): 3
- Reproductive system and breast disorders ≥Grade 3, number of patients (AML at enrollment (n = 30)): 1
- Respiratory distress ≥Grade 3, number of patients (AML at enrollment (n = 30)): 2
- Respiratory failure ≥Grade 3, number of patients (AML at enrollment (n = 30)): 3
- Respiratory, thoracic, and mediastinal disorders ≥Grade 3, number of patients (AML at enrollment (n = 30)): 10
- Tumor lysis syndrome ≥Grade 3, number of patients (AML at enrollment (n = 30)): 1
- Vascular disorders ≥Grade 3, number of patients (AML at enrollment (n = 30)): 3
- AML progression, number of patients (CML at enrollment (n = 5)): 5
- Abdominal Pain ≥Grade 3, number of patients (CML at enrollment (n = 5)): 0
- Acidosis ≥Grade 3, number of patients (CML at enrollment (n = 5)): 0
- Acute kidney injury ≥Grade 3, number of patients (CML at enrollment (n = 5)): 1
- Asthenia ≥Grade 3, number of patients (CML at enrollment (n = 5)): 1
- Back Pain ≥Grade 3, number of patients (CML at enrollment (n = 5)): 0
- Blood and lymphatic system disorders ≥Grade 3, number of patients (CML at enrollment (n = 5)): 2
- Cardiac disorders ≥Grade 3, number of patients (CML at enrollment (n = 5)): 1
- Cataract ≥Grade 3, number of patients (CML at enrollment (n = 5)): 0
- Dyspnea ≥Grade 3, number of patients (CML at enrollment (n = 5)): 0
- Extremity Lower Edema ≥Grade 3, number of patients (CML at enrollment (n = 5)): 0
- Eye disorders ≥Grade 3, number of patients (CML at enrollment (n = 5)): 0
- Febrile neutropenia ≥Grade 3, number of patients (CML at enrollment (n = 5)): 0
- Gastrointestinal disorders ≥Grade 3, number of patients (CML at enrollment (n = 5)): 0
- General disorders and administration site conditions ≥Grade 3, number of patients (CML at enrollment (n = 5)): 2
- Hallucinations ≥Grade 3, number of patients (CML at enrollment (n = 5)): 0
- Heart failure ≥Grade 3, number of patients (CML at enrollment (n = 5)): 1
- Hepatic failure ≥Grade 3, number of patients (CML at enrollment (n = 5)): 0
- Hepatobiliary disorders ≥Grade 3, number of patients (CML at enrollment (n = 5)): 0
- Hypocalcemia ≥Grade 3, number of patients (CML at enrollment (n = 5)): 1
- Hypoglycemia ≥Grade 3, number of patients (CML at enrollment (n = 5)): 1
- Hypokalemia ≥Grade 3, number of patients (CML at enrollment (n = 5)): 1
- Hyponatremia ≥Grade 3, number of patients (CML at enrollment (n = 5)): 1
- Hypotension ≥Grade 3, number of patients (CML at enrollment (n = 5)): 0
- Hypovolemia ≥Grade 3, number of patients (CML at enrollment (n = 5)): 0
- Hypoxia ≥Grade 3, number of patients (CML at enrollment (n = 5)): 0
- Investigations ≥Grade 3, number of patients (CML at enrollment (n = 5)): 0
- Leukocytosis ≥Grade 3, number of patients (CML at enrollment (n = 5)): 2
- Metabolism and nutritional disorders ≥Grade 3, number of patients (CML at enrollment (n = 5)): 4
- Multi-organ failure ≥Grade 3, number of patients (CML at enrollment (n = 5)): 1
- Musculoskeletal and connective tissue disorders ≥Grade 3, number of patients (CML at enrollment (n = 5)): 0
- Neoplasms benign, malignant, and unspecified (incl. cysts and polyps) ≥Grade 3, number of patients (CML at enrollment (n = 5)): 0
- Patients with AEs ≥Grade 3, number of patients (CML at enrollment (n = 5)): 4
- Penile Pain ≥Grade 3, number of patients (CML at enrollment (n = 5)): 0
- Platelet count decreased ≥Grade 3, number of patients (CML at enrollment (n = 5)): 0
- Pleural Effusions ≥Grade 3, number of patients (CML at enrollment (n = 5)): 0
- Pneumonia ≥Grade 3, number of patients (CML at enrollment (n = 5)): 0
- Psychiatric disorders ≥Grade 3, number of patients (CML at enrollment (n = 5)): 0
- Renal and urinary disorders ≥Grade 3, number of patients (CML at enrollment (n = 5)): 1
- Reproductive system and breast disorders ≥Grade 3, number of patients (CML at enrollment (n = 5)): 0
- Respiratory distress ≥Grade 3, number of patients (CML at enrollment (n = 5)): 1
- Respiratory failure ≥Grade 3, number of patients (CML at enrollment (n = 5)): 0
- Respiratory, thoracic, and mediastinal disorders ≥Grade 3, number of patients (CML at enrollment (n = 5)): 1
- Tumor lysis syndrome ≥Grade 3, number of patients (CML at enrollment (n = 5)): 2
- Vascular disorders ≥Grade 3, number of patients (CML at enrollment (n = 5)): 0
- AML progression, number of patients (MDS at enrollment (n = 4)): 2
- Abdominal Pain ≥Grade 3, number of patients (MDS at enrollment (n = 4)): 0
- Acidosis ≥Grade 3, number of patients (MDS at enrollment (n = 4)): 0
- Acute kidney injury ≥Grade 3, number of patients (MDS at enrollment (n = 4)): 0
- Asthenia ≥Grade 3, number of patients (MDS at enrollment (n = 4)): 0
- Back Pain ≥Grade 3, number of patients (MDS at enrollment (n = 4)): 0
- Blood and lymphatic system disorders ≥Grade 3, number of patients (MDS at enrollment (n = 4)): 0
- Cardiac disorders ≥Grade 3, number of patients (MDS at enrollment (n = 4)): 1
- Cataract ≥Grade 3, number of patients (MDS at enrollment (n = 4)): 0
- Dyspnea ≥Grade 3, number of patients (MDS at enrollment (n = 4)): 0
- Extremity Lower Edema ≥Grade 3, number of patients (MDS at enrollment (n = 4)): 0
- Eye disorders ≥Grade 3, number of patients (MDS at enrollment (n = 4)): 0
- Febrile neutropenia ≥Grade 3, number of patients (MDS at enrollment (n = 4)): 0
- Gastrointestinal disorders ≥Grade 3, number of patients (MDS at enrollment (n = 4)): 0
- General disorders and administration site conditions ≥Grade 3, number of patients (MDS at enrollment (n = 4)): 0
- Hallucinations ≥Grade 3, number of patients (MDS at enrollment (n = 4)): 0
- Heart failure ≥Grade 3, number of patients (MDS at enrollment (n = 4)): 1
- Hepatic failure ≥Grade 3, number of patients (MDS at enrollment (n = 4)): 0
- Hepatobiliary disorders ≥Grade 3, number of patients (MDS at enrollment (n = 4)): 0
- Hypocalcemia ≥Grade 3, number of patients (MDS at enrollment (n = 4)): 0
- Hypoglycemia ≥Grade 3, number of patients (MDS at enrollment (n = 4)): 0
- Hypokalemia ≥Grade 3, number of patients (MDS at enrollment (n = 4)): 0
